{
  "source": "ChEMBL document CHEMBL1201862",
  "about": "“PubChem BioAssay data set” (2004)",
  "key": {"[1]": {"assay": "Shn3 3'UTR reporter inhibitors, dose response, cell-based, Clone20 osteoblasts, firefly luciferase, cherry-picked (AID 624132)", "type": "functional"}, "[2]": {"assay": "HepG2 cell cytotoxicity, dose response, cytotoxicity control for Shn3 inhibitor project, CellTiter-Glo, cherry-picked (AID 624134)", "type": "functional, cell-based"}, "[3]": {"molecular_target": "T1, Kappa-type opioid receptor (Homo sapiens, UniProt P41145)", "T1 sequence (P41145 whole entry)": "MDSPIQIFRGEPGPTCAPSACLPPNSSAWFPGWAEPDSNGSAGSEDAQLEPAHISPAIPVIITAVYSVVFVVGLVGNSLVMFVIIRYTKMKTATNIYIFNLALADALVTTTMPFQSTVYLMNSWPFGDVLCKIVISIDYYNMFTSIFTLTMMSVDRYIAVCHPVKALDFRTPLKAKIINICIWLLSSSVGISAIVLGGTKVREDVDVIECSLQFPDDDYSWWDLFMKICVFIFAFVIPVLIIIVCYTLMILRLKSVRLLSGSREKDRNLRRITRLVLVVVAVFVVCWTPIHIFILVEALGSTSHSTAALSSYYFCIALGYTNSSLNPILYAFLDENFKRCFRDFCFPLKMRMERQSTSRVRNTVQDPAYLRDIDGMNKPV", "type": "functional"}, "[4]": {"molecular_target": "T2, Microphthalmia-associated transcription factor (Homo sapiens, UniProt O75030)", "T2 sequence (O75030 whole entry)": "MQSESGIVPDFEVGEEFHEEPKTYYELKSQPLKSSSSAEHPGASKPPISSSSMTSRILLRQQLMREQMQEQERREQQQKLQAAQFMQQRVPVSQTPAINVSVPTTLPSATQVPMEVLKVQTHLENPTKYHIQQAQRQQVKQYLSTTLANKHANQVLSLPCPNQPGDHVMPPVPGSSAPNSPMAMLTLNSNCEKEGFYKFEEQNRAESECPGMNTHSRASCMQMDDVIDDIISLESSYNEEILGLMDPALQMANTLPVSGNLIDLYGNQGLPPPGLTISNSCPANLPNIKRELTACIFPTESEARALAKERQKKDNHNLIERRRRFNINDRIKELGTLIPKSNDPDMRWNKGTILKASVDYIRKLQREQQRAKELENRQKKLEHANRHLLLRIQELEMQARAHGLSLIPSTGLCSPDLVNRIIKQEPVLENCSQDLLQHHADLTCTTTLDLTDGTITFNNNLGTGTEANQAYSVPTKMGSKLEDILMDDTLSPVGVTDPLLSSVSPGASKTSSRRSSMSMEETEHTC", "assay": "TRPM1 promoter luciferase signal decrease, dose response, MITF inhibitor project, cell-based, SK-MEL-5, cherry-picked, set 3 (AID 493073)", "type": "functional"}, "[5]": {"molecular_target": "Beta-galactosidase (Escherichia coli, UniProt Q8VNN2)", "type": "functional"}, "[6]": {"tested_on": "Vero", "assay": "Vero cell cytotoxicity, cytotoxicity control for flavivirus capping enzyme inhibitors (AID 588742)", "type": "functional", "conditions": "Chlorocebus sabaeus"}, "[7]": {"molecular_target": "Mu-type opioid receptor (Homo sapiens, UniProt P35372)", "sequence (P35372 whole entry)": "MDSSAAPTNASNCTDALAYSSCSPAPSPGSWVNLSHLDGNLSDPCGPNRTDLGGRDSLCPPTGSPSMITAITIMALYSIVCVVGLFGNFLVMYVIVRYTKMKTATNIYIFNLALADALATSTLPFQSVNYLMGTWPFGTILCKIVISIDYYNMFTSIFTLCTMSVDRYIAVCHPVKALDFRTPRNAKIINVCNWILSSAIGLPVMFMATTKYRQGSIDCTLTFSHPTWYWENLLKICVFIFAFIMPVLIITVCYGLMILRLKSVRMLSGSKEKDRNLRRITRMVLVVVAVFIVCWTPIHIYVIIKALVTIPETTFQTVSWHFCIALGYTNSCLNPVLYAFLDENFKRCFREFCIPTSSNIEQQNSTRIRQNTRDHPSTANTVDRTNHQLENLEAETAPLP", "assay": "HTS Image-Based Screen for Agonists of the MOR Receptor. [Related pubchem assays (depositor defined):AID1777, AID1785, AID1786, AID2133]", "type": "functional"}, "[8]": {"molecular_target": "T3, Delta-type opioid receptor (Homo sapiens, UniProt P41143)", "T3 sequence (P41143 whole entry)": "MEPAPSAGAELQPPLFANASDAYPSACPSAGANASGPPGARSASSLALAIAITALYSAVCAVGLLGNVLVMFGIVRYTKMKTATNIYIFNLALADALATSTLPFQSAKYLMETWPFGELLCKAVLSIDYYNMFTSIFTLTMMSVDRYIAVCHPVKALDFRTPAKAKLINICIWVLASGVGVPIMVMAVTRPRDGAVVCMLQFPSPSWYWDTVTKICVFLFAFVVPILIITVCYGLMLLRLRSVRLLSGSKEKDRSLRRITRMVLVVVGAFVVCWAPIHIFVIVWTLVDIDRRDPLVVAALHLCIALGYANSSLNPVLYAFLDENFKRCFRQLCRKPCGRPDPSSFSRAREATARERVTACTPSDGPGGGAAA", "assay": "HTS Image-Based Screen for Agonists of the DOR Receptor. [Related pubchem assays (depositor defined):AID1777, AID1786, AID2133]", "type": "functional"}, "[9]": {"molecular_target": "T4, Fatty acid synthase (Homo sapiens, UniProt P49327)", "T4 sequence (P49327 whole entry, the tested form may be a part)": "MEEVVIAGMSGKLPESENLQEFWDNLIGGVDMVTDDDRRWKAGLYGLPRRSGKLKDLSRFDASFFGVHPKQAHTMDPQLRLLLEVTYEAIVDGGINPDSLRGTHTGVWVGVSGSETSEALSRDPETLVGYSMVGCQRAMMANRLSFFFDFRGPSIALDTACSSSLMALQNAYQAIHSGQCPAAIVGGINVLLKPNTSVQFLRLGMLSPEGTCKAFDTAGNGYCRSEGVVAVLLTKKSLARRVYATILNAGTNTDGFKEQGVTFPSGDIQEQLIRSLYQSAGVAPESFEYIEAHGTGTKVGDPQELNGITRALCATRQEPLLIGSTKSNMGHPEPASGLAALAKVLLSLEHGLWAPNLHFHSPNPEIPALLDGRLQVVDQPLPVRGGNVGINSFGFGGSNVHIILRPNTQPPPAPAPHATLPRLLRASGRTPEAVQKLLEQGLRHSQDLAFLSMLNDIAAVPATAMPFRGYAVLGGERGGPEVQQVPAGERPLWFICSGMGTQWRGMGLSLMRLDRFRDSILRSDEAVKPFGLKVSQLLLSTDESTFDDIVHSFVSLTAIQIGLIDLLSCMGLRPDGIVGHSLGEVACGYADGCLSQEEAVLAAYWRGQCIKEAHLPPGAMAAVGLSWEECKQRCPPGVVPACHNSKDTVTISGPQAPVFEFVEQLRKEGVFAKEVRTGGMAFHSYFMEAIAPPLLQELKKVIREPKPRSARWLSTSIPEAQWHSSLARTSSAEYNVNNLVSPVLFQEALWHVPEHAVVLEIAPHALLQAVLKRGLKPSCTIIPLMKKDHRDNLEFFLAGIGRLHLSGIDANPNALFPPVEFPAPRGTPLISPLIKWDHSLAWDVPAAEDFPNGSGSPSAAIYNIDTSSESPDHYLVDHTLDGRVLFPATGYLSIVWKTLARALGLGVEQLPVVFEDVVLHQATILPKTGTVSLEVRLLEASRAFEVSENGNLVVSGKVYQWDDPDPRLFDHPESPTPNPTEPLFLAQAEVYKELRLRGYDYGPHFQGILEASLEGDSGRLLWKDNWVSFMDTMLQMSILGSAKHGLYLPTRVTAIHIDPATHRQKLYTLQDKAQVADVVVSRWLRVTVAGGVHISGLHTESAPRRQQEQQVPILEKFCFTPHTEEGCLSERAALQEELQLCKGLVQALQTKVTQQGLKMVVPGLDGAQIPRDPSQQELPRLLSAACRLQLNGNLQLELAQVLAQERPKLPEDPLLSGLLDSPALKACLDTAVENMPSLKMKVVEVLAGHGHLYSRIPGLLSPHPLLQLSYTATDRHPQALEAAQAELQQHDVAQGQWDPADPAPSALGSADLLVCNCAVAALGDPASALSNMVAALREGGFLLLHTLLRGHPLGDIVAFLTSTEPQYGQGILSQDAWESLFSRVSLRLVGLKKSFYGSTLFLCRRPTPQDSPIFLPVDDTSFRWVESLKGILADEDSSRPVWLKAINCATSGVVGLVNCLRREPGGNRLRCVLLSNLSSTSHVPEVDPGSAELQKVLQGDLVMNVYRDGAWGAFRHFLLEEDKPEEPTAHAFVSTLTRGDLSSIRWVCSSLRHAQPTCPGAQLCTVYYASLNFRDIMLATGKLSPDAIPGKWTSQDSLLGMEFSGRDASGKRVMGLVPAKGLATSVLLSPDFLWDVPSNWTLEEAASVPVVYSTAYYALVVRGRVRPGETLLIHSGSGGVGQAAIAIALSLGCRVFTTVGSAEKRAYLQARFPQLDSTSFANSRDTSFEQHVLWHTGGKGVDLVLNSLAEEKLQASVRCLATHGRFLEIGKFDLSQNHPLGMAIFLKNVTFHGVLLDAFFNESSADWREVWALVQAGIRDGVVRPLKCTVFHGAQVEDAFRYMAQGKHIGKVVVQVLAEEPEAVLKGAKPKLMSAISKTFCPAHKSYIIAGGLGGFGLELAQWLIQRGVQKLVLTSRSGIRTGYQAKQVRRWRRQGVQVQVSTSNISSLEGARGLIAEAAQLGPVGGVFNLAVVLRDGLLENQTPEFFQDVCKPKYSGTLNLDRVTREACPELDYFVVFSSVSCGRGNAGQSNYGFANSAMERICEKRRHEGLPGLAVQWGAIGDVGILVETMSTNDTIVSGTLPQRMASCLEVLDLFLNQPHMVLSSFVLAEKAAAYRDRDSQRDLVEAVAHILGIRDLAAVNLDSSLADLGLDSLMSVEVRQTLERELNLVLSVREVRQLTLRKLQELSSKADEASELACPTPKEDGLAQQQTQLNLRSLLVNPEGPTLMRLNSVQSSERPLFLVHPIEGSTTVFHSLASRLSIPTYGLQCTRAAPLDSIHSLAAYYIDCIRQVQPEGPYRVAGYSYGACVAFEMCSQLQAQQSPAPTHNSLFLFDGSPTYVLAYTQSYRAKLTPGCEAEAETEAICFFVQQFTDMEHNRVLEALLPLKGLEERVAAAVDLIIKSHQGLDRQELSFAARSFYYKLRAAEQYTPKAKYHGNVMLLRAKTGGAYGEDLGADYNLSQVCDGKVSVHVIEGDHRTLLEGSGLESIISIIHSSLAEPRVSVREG", "assay": "FAS thioesterase domain inhibitors, dose response, biochemical, kinetic fluorescence intensity (AID 624326);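 further: rate of fluorescence rise from hydrolysis of a fluorogenic O-methyl fluorescein ester substrate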", "type": "functional"}, "[10]": {"assay": "control 3'UTR Renilla luciferase suppression, dose response, counter-screen for Shn3 inhibitor project, cell-based, Clone20-Shn3RL, cherry-picked (AID 624133)", "type": "functional"}, "[11]": {"assay": "THP-1 cell cytotoxicity, dose response, cytotoxicity control for Vif-APOBEC3G degradation inhibitor project, THP-1 cells (AID 1117359)", "type": "functional", "conditions": "Human immunodeficiency virus 1, THP-1"}, "[12]": {"assay": "growth suppression of PTEN-null colon cells, dose response, cell-based, HCT116 PTEN knockout (AID 1047);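 further: HCT116 colon tumor cells with PTEN knocked out; cells exposed to compound for 60 hours before readout; potency for loss of cell viability measured by luminescence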", "type": "functional"}, "[13]": {"molecular_target": "T3, Delta-type opioid receptor", "assay": "HTS Image-Based Screen for Antagonists of the DOR Receptor. [Related pubchem assays (depositor defined):AID1777, AID1785, AID1786, AID2133]", "type": "functional"}, "[14]": {"assay": "growth suppression of beta-catenin-knockout colon cells, dose response, cell-based, HCT116, human colon tumor (AID 1045);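 further: HCT116 colon tumor cells with beta catenin knocked out; cells exposed to compound for 60 hours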", "type": "functional"}, "[15]": {"molecular_target": "T1, Kappa-type opioid receptor", "type": "functional", "remark": "listed apart in the source"}, "[16]": {"molecular_target": "T4, Fatty acid synthase", "assay": "FAS thioesterase domain inhibitors, dose response, biochemical, endpoint fluorescence intensity, uHTS hits (AID 624327);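 further: fluorescence from hydrolysis of an O-methyl fluorescein acyl ester substrate by the enzyme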", "type": "functional"}, "[17]": {"molecular_target": "Peroxisome proliferator-activated receptor gamma/Nuclear receptor coactivator 3 (Homo sapiens, UniProt P37231)", "type": "functional"}, "[18]": {"molecular_target": "Peroxisome proliferator-activated receptor gamma/Nuclear receptor coactivator 2 (Homo sapiens, UniProt P37231)", "type": "functional"}, "[19]": {"molecular_target": "T5, Caspase-6 (Homo sapiens, UniProt P55212)", "T5 sequence (P55212 whole entry)": "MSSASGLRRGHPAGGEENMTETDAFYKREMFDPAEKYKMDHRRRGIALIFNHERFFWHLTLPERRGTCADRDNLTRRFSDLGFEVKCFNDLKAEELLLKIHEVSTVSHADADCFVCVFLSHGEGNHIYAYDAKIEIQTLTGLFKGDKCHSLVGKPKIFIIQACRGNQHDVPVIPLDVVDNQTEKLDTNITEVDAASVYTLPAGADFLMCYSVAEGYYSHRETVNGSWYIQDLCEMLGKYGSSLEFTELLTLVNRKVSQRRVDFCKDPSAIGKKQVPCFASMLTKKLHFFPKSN", "assay": "human caspase-6 inhibitors, dose response, biochemical, VEID-R110 fluorescence, cherry-pick (AID 720632)"}, "[20]": {"molecular_target": "Peroxisome proliferator-activated receptor gamma/Nuclear receptor coactivator 1 (Homo sapiens, UniProt P37231)", "type": "functional"}, "[21]": {"assay": "cytotoxicity toward NIH3T3 fibroblasts, dose response, counter-screen, cell-based, ATP luminescence, mouse fibroblasts (AID 2010);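 further: cells exposed to compound for about 90 hours before reading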", "type": "functional"}, "[22]": {"assay": "inhibitors of intracellular T. cruzi replication, confirmation, NIH3T3 host cells, beta-gal luminescence (AID 2044);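 further: luminescent beta-galactosidase reporter signal from transgenic T. cruzi replicating inside host cells; inhibitors lower the luminescence signal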", "type": "functional, cell-based"}, "[23]": {"molecular_target": "T6, Serine/threonine-protein phosphatase (Candida dubliniensis (strain CD36 / CBS 7987 / NCPF 3949 / NRRLY-17841) (Yeast), UniProt B9W6M3)", "T6 sequence (B9W6M3 whole entry)": "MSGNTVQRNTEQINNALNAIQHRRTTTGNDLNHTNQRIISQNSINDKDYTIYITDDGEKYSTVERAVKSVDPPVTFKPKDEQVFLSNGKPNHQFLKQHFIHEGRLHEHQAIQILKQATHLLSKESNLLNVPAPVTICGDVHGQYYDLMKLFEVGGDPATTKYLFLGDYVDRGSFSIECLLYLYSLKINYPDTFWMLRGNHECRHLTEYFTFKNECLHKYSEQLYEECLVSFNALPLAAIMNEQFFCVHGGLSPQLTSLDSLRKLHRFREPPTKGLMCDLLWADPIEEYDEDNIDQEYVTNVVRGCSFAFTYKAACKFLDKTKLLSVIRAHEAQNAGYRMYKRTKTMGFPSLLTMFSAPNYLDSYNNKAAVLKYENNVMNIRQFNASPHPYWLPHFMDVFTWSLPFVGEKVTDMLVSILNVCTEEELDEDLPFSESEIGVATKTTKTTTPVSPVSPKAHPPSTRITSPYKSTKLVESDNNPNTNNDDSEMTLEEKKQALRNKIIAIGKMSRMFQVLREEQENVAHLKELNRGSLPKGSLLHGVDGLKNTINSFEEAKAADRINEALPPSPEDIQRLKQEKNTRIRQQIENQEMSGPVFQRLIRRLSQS", "assay": "calcineurin pathway inhibitors in yeast reporter, dose response, S. cerevisiae, CDRE-lacZ, luminescence, secondary (AID 2388);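 further: yeast reporter cells carrying a calcineurin-responsive lacZ construct stimulated with calcium chloride; luminescent beta-galactosidase reporter signal in whole cells rather than isolated phosphatase activity; potency for inhibition where a drop in reporter signal means calcineurin blockade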", "type": "functional, cell-based"}, "[24]": {"assay": "THP-1 cell cytotoxicity, dose response, cytotoxicity control for non-replicating M. tuberculosis project (AID 489025)", "type": "functional"}, "[25]": {"assay": "NIH-3T3 fibroblast cytotoxicity, dose response, cytotoxicity control, cell-based, fluorescence, Alamar Blue, secondary assay (AID 2327);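 further: NIH-3T3 mouse fibroblasts cultured with fluconazole at 8 µg/mL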", "type": "functional"}, "[26]": {"assay": "cells", "type": "functional"}, "[27]": {"assay": "C. albicans growth with fluconazole, confirmation, fluorescence, retest (AID 2467)", "type": "functional, cell-based"}, "[28]": {"molecular_target": "ATP-dependent molecular chaperone HSP82 (Candida albicans (strain WO-1) (Yeast), UniProt C4YTQ8)", "sequence (C4YTQ8 whole entry)": "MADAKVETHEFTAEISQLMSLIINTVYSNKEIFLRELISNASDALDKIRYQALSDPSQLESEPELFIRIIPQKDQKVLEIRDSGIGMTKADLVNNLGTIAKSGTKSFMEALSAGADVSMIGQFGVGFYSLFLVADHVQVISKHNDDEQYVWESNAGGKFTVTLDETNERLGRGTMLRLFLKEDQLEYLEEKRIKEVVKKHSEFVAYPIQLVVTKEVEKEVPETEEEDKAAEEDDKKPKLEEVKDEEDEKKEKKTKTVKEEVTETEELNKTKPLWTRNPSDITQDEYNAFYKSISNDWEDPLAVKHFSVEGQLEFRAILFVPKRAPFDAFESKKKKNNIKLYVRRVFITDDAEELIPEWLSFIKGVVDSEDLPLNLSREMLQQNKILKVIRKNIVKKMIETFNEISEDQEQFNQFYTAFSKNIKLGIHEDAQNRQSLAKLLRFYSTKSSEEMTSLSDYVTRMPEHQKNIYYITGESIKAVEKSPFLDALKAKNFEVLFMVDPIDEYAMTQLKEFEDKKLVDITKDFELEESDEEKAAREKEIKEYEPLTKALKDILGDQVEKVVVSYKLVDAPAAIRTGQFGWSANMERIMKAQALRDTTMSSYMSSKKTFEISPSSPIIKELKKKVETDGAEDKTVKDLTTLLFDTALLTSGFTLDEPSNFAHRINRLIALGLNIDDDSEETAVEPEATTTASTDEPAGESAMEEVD", "assay": "loss of DOC-induced GRE-beta-galactosidase reporter signal, dose response, Hsp90 inhibitor project, S. cerevisiae, luminescence (AID 2400);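 further: beta-galactosidase luminescence from glucocorticoid response element reporter as proxy for Hsp90 function; inhibitor potency where signal loss means Hsp90 inhibition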", "type": "functional, cell-based"}},
  "note": "Calls of active or inactive are those of the source.",
  "data": [
    {"smiles": "CCC(=O)OCCNc1cc(Sc2nc3ccccc3[nH]2)c2nonc2c1[N+](=O)[O-]", "values": [
      {"measurement": "AC50", "setting": "[1]", "result": "1.09 µM (active)"},
      {"measurement": "AC50", "setting": "[2]", "result": "27.4 µM (active)"},
      {"measurement": "IC50", "setting": "[3]", "result": 19.1, "unit": "µM"},
      {"measurement": "AC50", "setting": "[4]", "result": "9.14 µM (active)"},
      {"measurement": "EC50", "setting": "[5]", "result": "> 31.5 µM (inactive)"},
      {"measurement": "CC50", "setting": "[6]", "result": "19 µM (active)"},
      {"measurement": "EC50", "setting": "[7]", "result": "> 32 µM (inactive)"},
      {"measurement": "EC50", "setting": "[8]", "result": "> 32 µM (inactive)"},
      {"measurement": "IC50", "setting": "[9]", "result": "0.845 µM (active)"},
      {"measurement": "AC50", "setting": "[10]", "result": "8.68 µM (active)"},
      {"measurement": "CC50", "setting": "[11]", "result": "14.7 µM (active)"},
      {"measurement": "EC50", "setting": "[12]", "result": "6.88 µM (active)"},
      {"measurement": "IC50", "setting": "[13]", "result": "> 32 µM (inactive)"},
      {"measurement": "EC50", "setting": "[14]", "result": "5.01 µM (active)"},
      {"measurement": "IC50", "setting": "[15]", "result": "2.56 µM (active)"},
      {"measurement": "IC50", "setting": "[16]", "result": "2.04 µM (active)"}
    ]},
    {"smiles": "Oc1ccc(NCc2cccc(OCc3ccc(F)cc3)c2)cc1", "values": [
      {"measurement": "CC50", "setting": "[6]", "result": "> 40 µM (active)"},
      {"measurement": "CC50", "setting": "[11]", "result": "> 40 µM (active)"},
      {"measurement": "EC50", "setting": "[17]", "result": "> 79.4 µM (not active)"},
      {"measurement": "EC50", "setting": "[18]", "result": "> 79.4 µM (not active)"},
      {"measurement": "AC50", "setting": "[19]", "result": "6.29 µM (active)"},
      {"measurement": "EC50", "setting": "[20]", "result": "> 79.4 µM (not active)"}
    ]},
    {"smiles": "COc1ccccc1OCC(=O)N/N=C/C=C/c1ccc([N+](=O)[O-])o1", "values": [
      {"measurement": "EC50", "setting": "[21]", "result": "14.2 µM (active)"},
      {"measurement": "EC50", "setting": "[22]", "result": "0.105 µM (active)"},
      {"measurement": "AC50", "setting": "[4]", "result": "7.39 µM (active)"},
      {"measurement": "EC50", "setting": "[23]", "result": "> 180 µM (inactive)"},
      {"measurement": "CC50", "setting": "[24]", "result": "23 µM (active)"},
      {"measurement": "EC50", "setting": "[25]", "result": "51.2 µM (active)"},
      {"measurement": "IC50", "setting": "[26]", "result": "2.27 µM (active)"},
      {"measurement": "EC50", "setting": "[27]", "result": "0.654 µM (active)"},
      {"measurement": "EC50", "setting": "[28]", "result": "> 160 µM (inactive)"}
    ]},
    {"smiles": "O=C(NCc1ccc(F)cc1)C(c1ccccc1)N(CC1CCCO1)C(=O)Cn1nnc2ccccc21", "note": "(stereo not given)", "values": [
      {"measurement": "EC50", "setting": "[23]", "result": "> 180 µM (inactive)"},
      {"measurement": "EC50", "setting": "[25]", "result": "> 150 µM (inactive)"},
      {"measurement": "EC50", "setting": "[27]", "result": "1.07 µM (active)"},
      {"measurement": "EC50", "setting": "[28]", "result": "> 150 µM (inactive)"}
    ]}
  ]
}
